Measured values from patent US20250041245A1, “ENDOXIFEN FOR TREATMENT OF CANCERS” (Atossa Therapeutics, Inc., priority 2021, published 2025).
Where “and” joins values, the source holds several entries; their conditions need not be identical. Identical values can stand only once. Entries after “also recorded” stand apart in the source; their conditions may differ.

Tests used:
Type in all cases: cell-based, human
[1] = test system: patient-derived tumor organoids (PDTOs), pancreatic ductal adenocarcinoma; assay: Endoxifen screen in PDTOs: pancreatic ductal adenocarcinoma; set-up: key to Personalization Category: Personalization categories range from High, Good, Moderate, Low, to None; Personalization categories range from High, Good, Moderate, Low, to None; Personalization categories range from High, Good, Moderate, Low, to None; Personalization categories range from High, Good, Moderate, Low, to None; Personalization categories range from High, Good, Moderate, Low, to None; key to Sensitivity Category: Sensitivity categories range from High, Good, Moderate, Low, to None; Sensitivity categories range from High, Good, Moderate, Low, to None; Sensitivity categories range from High, Good, Moderate, Low, to None; Sensitivity categories range from High, Good, Moderate, Low, to None; Sensitivity categories range from High, Good, Moderate, Low, to None; AUC: unit not given beside the values; conditions: each line one patient sample; for IC50: four-parameter logistic fit
Protocol: (§1) This example describes screening endoxifen in patient-derived tumor organoids. Endoxifen was tested as a single agent on tumor organoids derived from patients diagnosed with various cancer types using a personalized cancer treatment screening assay (PARIS© Test, SEngine Precision Medicine). The screen utilized patient-derived tumor organoids (PDTOs) along with high-throughput drug screening and machine learning-guided data analysis to quantify the efficacy of endoxifen against samples derived from individual patients diagnosed with various cancer types. PDTOs are self-organizing, three-dimensional organoid structures that recapitulate structural, functional, and genomic aspects of in vivo organs. The PDTOs were grown in culture from patient tumor biopsy samples.
(§2) Fresh patient biopsy samples received following surgery were cleaned and purified. Immune cells (e.g., lymphocytes, blood cells), cancer-associated fibroblasts, and other non-tumor cells were removed to establish pure PDTOs for endoxifen testing. The tumor organoids were grown and expanded by supplying organ- and patient-specific growth factors and nutrients. The PDTOs were treated with increasing concentrations of endoxifen ranging from about 30 nM to about 10 μM, and the drug response was measured using a luminescence readout. A lower luminescence was indicative of a stronger drug response.
(§3) The results were analyzed using a “SEngine Precision Medicine” (SPM) scoring system to assess the sensitivity and personalization of each tumor organoid to endoxifen. The SPM score correlates with clinical outcomes, such that a higher SPM score for a specific PDTO-drug combination predicts a more favorable clinical outcome following treatment of the corresponding patient with the tested drug.
(§4) This example describes testing endoxifen efficacy against 17 distinct cancer types in patient-derived tumor organoids (PDTOs). Screening of PDTOs was performed as described in EXAMPLE 1. For each PDTO sample, the drug response was measured using a luminescent readout over a range of endoxifen concentrations. The drug response was evaluated based on the area under the fitted dose response curve (AUC) and the SPM scoring system. AUC values were normalized for each PDTO. Briefly, data points at each drug concentration were first normalized to a negative control, then a dose response drug curve was approximated using a four-parameter logistic model fitted to the normalized data points. The area under the curve was calculated from the normalized curve. Normalization allowed for comparison of AUC values between patient samples. The SPM scores were based on machine learning models that incorporate values for how well the drug kill patient cells (sensitivity metric), the relative drug responses of a patient to all other patients in a sample database (personalization metric), and knowledge of clinical outcomes for patients that had been evaluated with the personalized cancer screening assay (PARIS® Test, SEngine Precision Medicine).
(§5) The SPM scoring system evaluated whether a PDTO was unresponsive or responsive to endoxifen and the degree of drug response for PDTOs that were responsive to endoxifen. The SPM scoring system generated metrics an SPM score, predictive of clinical outcome, overall drug response (response category), drug sensitivity (sensitivity category), and drug personalization (personalization category). SPM scores ranged from 1-15, corresponding to the following drug response categories: no response (SPM 1-8), low response (SPM 9), moderate response (SPM 10-11), good response (SPM 12-13), and exceptional response (SPM 14-15). […] Moderate to good drug responses (SPM 10-13) may indicate that a drug has clinical relevance, possibly in combination with other drugs. The sensitivity category was determined from the sensitivity metric and is a measure of overall cell death of a patient's cells in response to endoxifen at six concentrations. […]

[2] = test system: patient-derived tumor organoids (PDTOs), leiomyosarcoma; assay: Endoxifen screen in PDTOs: leiomyosarcoma; set-up: key to Personalization Category: Personalization categories range from High, Good, Moderate, Low, to None; Personalization categories range from High, Good, Moderate, Low, to None; Personalization categories range from High, Good, Moderate, Low, to None; Personalization categories range from High, Good, Moderate, Low, to None; Personalization categories range from High, Good, Moderate, Low, to None; key to Sensitivity Category: Sensitivity categories range from High, Good, Moderate, Low, to None; Sensitivity categories range from High, Good, Moderate, Low, to None; Sensitivity categories range from High, Good, Moderate, Low, to None; Sensitivity categories range from High, Good, Moderate, Low, to None; Sensitivity categories range from High, Good, Moderate, Low, to None; AUC: unit not given beside the values; conditions: each line one patient sample
Protocol: as §1, §2, §3, §4
The SPM scoring system evaluated whether a PDTO was unresponsive or responsive to endoxifen and the degree of drug response for PDTOs that were responsive to endoxifen. […] The sensitivity category was determined from the sensitivity metric and is a measure of overall cell death of a patient's cells in response to endoxifen at six concentrations. […]

[3] = test system: patient-derived tumor organoids (PDTOs), ovarian cancer; assay: Endoxifen screen in PDTOs: ovarian cancer; set-up: AUC: unit not given beside the values; conditions: each line one patient sample
Protocol: as §1
as §2, with “The tumor organoids were grown and expanded by supplying organ- and patient-specific growth factors and nutrients.” left out
The results were analyzed using a “SEngine Precision Medicine” (SPM) scoring system to assess the sensitivity and personalization of each tumor organoid to endoxifen. […]
This example describes testing endoxifen efficacy against 17 distinct cancer types in patient-derived tumor organoids (PDTOs). […] For each PDTO sample, the drug response was measured using a luminescent readout over a range of endoxifen concentrations. The drug response was evaluated based on the area under the fitted dose response curve (AUC) and the SPM scoring system. […] The area under the curve was calculated from the normalized curve. […]
The SPM scoring system evaluated whether a PDTO was unresponsive or responsive to endoxifen and the degree of drug response for PDTOs that were responsive to endoxifen. […]

[4] = test system: patient-derived tumor organoids (PDTOs), melanoma; assay: Endoxifen screen in PDTOs: melanoma; set-up: key to Personalization Category: Personalization categories range from High, Good, Moderate, Low, to None; Personalization categories range from High, Good, Moderate, Low, to None; Personalization categories range from High, Good, Moderate, Low, to None; Personalization categories range from High, Good, Moderate, Low, to None; Personalization categories range from High, Good, Moderate, Low, to None; key to Sensitivity Category: Sensitivity categories range from High, Good, Moderate, Low, to None; Sensitivity categories range from High, Good, Moderate, Low, to None; Sensitivity categories range from High, Good, Moderate, Low, to None; Sensitivity categories range from High, Good, Moderate, Low, to None; Sensitivity categories range from High, Good, Moderate, Low, to None; AUC: unit not given beside the values
Protocol: as §1, §2, §3, §4, §5

[5] = normalized area under fitted dose response curve
[6] = melanoma PDTOs, each line one patient sample

Structure (SMILES): CC/C(=C(\c1ccc(O)cc1)c1ccc(OCCNC)cc1)c1ccccc1 [Endoxifen, 4-hydroxy-N-desmethyltamoxifen]
- IC50 ([1]; Homo sapiens): 4.47 µM
- Personalization Category [1]: Good and Low and None
- Response Category [1]: Moderate (moderate response (SPM 10-11)); also recorded: Low (low response (SPM 9)); also recorded: None (no response (SPM 1-8))
- Sensitivity Category [1]: Low and None
- IC50 [1]: 5.83 µM
- AUC [1, 5]: 0.8283 and 0.8839 and 1.1358
- SPM Score ([1]; score range 1-15): 11 and 9 and 1
- Personalization Category [2]: None
- Response Category [2]: None (no response (SPM 1-8))
- Sensitivity Category [2]: None
- AUC [2, 5]: 0.9719 and 1.0448 and 1.0001
- SPM Score ([2]; score range 1-15): 1
- IC50 ([3]; four-parameter logistic fit): 9.26 µM and 8.13 µM and 6.7 µM and 4.87 µM and 7.26 µM and 9.3 µM and 3.08 µM and 6.91 µM and 9.33 µM and 3.45 µM and 9.41 µM and 6.22 µM and 9.47 µM and 6.17 µM and 7.21 µM and 6.13 µM and 4.14 µM and 6.06 µM and 3.59 µM and 5.48 µM and 3.69 µM and 4.28 µM and 9.16 µM
- AUC [3, 5]: 0.9109 and 1.0762 and 0.8038 and 0.9291 and 0.9081 and 0.9209 and 1.0105 and 0.8454 and 0.8909 and 0.9267 and 0.9074 and 0.8343 and 0.9838 and 0.8320 and 1.0057 and 0.9637 and 1.1417 and 1.0287 and 0.8785 and 0.8853 and 0.9968 and 0.9220 and 0.8174 and 0.9760 and 0.8739 and 0.8607 and 1.0172 and 0.9895 and 0.9934
- SPM Score ([3]; score range 1-15): 1 (15×) and 11 (2×) and 5 (3×) and 9 (6×) and 10 (2×) and 4
- IC50 ([4]; Homo sapiens, skin cancer organoid assays, multiple skin cancers (summary statement)): < 10 µM
- Personalization Category [4, 6]: Low and Good and High
- Response Category [4, 6]: Low (low response (SPM 9)); also recorded: Moderate (moderate response (SPM 10-11)); also recorded: Good (good response (SPM 12-13))
- Sensitivity Category [4, 6]: Low and Moderate
- IC50 ([4]; melanoma PDTOs, each line one patient sample, four-parameter logistic fit): 2.74 µM and 3.3 µM and 1.44 µM and 7.06 µM
- AUC ([4]; melanoma PDTOs, each line one patient sample, normalized area under fitted dose response curve): 0.8952 and 0.7865 and 0.6541 and 0.8094
- SPM Score ([4]; melanoma PDTOs, each line one patient sample, score range 1-15): 9 and 11 (2×) and 13
